Measurements: PubChem BioAssay (NCI)
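Dose response: 5 concentrations. Exposure: 48 h. Format: 96-well plates. Endpoint: linear interpolation; highest concentration if not reached. GI50 = concentration required for 50% inhibition of growth. TGI denotes the concentration required for complete inhibition of growth.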

Legend:
Test in all cases: DTP human tumour cell line panel, 48 h
[1] = test system: 786-0 renal
[2] = test system: A498 renal
[3] = test system: A549 NSCLC
[4] = test system: ACHN renal
[5] = test system: BT-549 breast
[6] = test system: CAKI-1 renal
[7] = test system: CCRF-CEM leukemia
[8] = test system: COLO 205 colon
[9] = test system: DU-145 prostate
[10] = test system: EKVX NSCLC
[11] = test system: HCC-2998 colon
[12] = test system: HCT-116 colon
[13] = test system: HCT-15 colon
[14] = test system: HL-60(TB) leukemia
[15] = test system: HOP-62 NSCLC
[16] = test system: HOP-92 NSCLC
[17] = test system: HS 578T breast
[18] = test system: HT29 colon
[19] = test system: IGROV1 ovarian
[20] = test system: K-562 leukemia
[21] = test system: KM12 colon
[22] = test system: LOX IMVI melanoma
[23] = test system: M14 melanoma
[24] = test system: MALME-3M melanoma
[25] = test system: MCF7 breast
[26] = test system: MDA-MB-231 breast
[27] = test system: MDA-MB-435
[28] = test system: MOLT-4 leukemia
[29] = test system: NCI-H226 lung
[30] = test system: NCI-H23 lung
[31] = test system: NCI-H460 lung
[32] = test system: NCI-H522 lung
[33] = test system: NCI/ADR-RES ovarian
[34] = test system: OVCAR-3 ovarian
[35] = test system: OVCAR-4 ovarian
[36] = test system: OVCAR-5 ovarian
[37] = test system: OVCAR-8 ovarian
[38] = test system: PC-3 prostate
[39] = test system: RPMI-8226 leukemia
[40] = test system: SF-268 CNS
[41] = test system: SF-295 CNS
[42] = test system: SF-539 CNS
[43] = test system: SK-MEL-2 melanoma
[44] = test system: SK-MEL-28 melanoma
[45] = test system: SK-MEL-5 melanoma
[46] = test system: SK-OV-3 ovarian
[47] = test system: SN12C renal
[48] = test system: SNB-19 CNS
[49] = test system: SNB-75 CNS
[50] = test system: SR leukemia
[51] = test system: SW-620 colon
[52] = test system: T-47D breast
[53] = test system: TK-10 renal
[54] = test system: U251 CNS
[55] = test system: UACC-257 melanoma
[56] = test system: UACC-62 melanoma
[57] = test system: UO-31 renal

CC(C)(C)Nc1nc2c(OCCc3ccccc3)cccn2c1-c1cccc(Oc2ccccc2)c1
GI50 [1]: 3.8 µM | TGI [1]: > 100 µM | GI50 [2]: 8.91 µM | TGI [2]: 83.9 µM | GI50 [3]: 7.42 µM | TGI [3]: > 100 µM | GI50 [4]: 7.67 µM | TGI [4]: > 100 µM | GI50 [5]: 3.48 µM | TGI [5]: 29.7 µM | GI50 [6]: 9.11 µM | TGI [6]: > 100 µM | GI50 [7]: 7.07 µM | TGI [7]: > 100 µM | GI50 [8]: 12.3 µM | TGI [8]: 25.9 µM | GI50 [9]: 19.4 µM | TGI [9]: > 100 µM | GI50 [10]: 4.54 µM | TGI [10]: > 100 µM | GI50 [11]: 6.21 µM | TGI [11]: > 100 µM | GI50 [12]: 3.42 µM | TGI [12]: > 100 µM | GI50 [13]: 3.89 µM | TGI [13]: > 100 µM | GI50 [14]: 18.6 µM | TGI [14]: > 100 µM | GI50 [15]: 15.1 µM | TGI [15]: > 100 µM | GI50 [16]: 2.22 µM | TGI [16]: 7.08 µM | GI50 [17]: 5.51 µM | TGI [17]: > 100 µM | GI50 [18]: 3.75 µM | TGI [18]: > 100 µM | GI50 [19]: 12.4 µM | TGI [19]: > 100 µM | GI50 [20]: 6.18 µM | TGI [20]: > 100 µM | GI50 [21]: 7.42 µM | TGI [21]: > 100 µM | GI50 [22]: 8.54 µM | TGI [22]: 41.2 µM | GI50 [23]: 18.6 µM | TGI [23]: > 100 µM | GI50 [24]: 8.12 µM | TGI [24]: > 100 µM | GI50 [25]: 4.34 µM | TGI [25]: > 100 µM | GI50 [26]: 18.7 µM | TGI [26]: 83 µM | GI50 [27]: 4.97 µM | TGI [27]: > 100 µM | GI50 [28]: 11 µM | TGI [28]: > 100 µM | GI50 [29]: 3.45 µM | TGI [29]: > 100 µM | GI50 [30]: 5.86 µM | TGI [30]: > 100 µM | GI50 [31]: 4.6 µM | TGI [31]: > 100 µM | GI50 [32]: 6.95 µM | TGI [32]: > 100 µM | GI50 [33]: 7.51 µM | TGI [33]: > 100 µM | GI50 [34]: 3.71 µM | TGI [34]: > 100 µM | GI50 [35]: 4 µM | TGI [35]: > 100 µM | GI50 [36]: 17.8 µM | TGI [36]: > 100 µM | GI50 [37]: 14.8 µM | TGI [37]: > 100 µM | GI50 [38]: 4 µM | TGI [38]: > 100 µM | GI50 [39]: 3.4 µM | TGI [39]: > 100 µM | GI50 [40]: 8.03 µM | TGI [40]: > 100 µM | GI50 [41]: 5.54 µM | TGI [41]: > 100 µM | GI50 [42]: 16.3 µM | TGI [42]: 43.1 µM | GI50 [43]: 5.16 µM | TGI [43]: 26.8 µM | GI50 [44]: 4.87 µM | TGI [44]: > 100 µM | GI50 [45]: 4.95 µM | TGI [45]: 17.6 µM | GI50 [46]: 24.2 µM | TGI [46]: > 100 µM | GI50 [47]: 5.17 µM | TGI [47]: > 100 µM | GI50 [48]: 6.62 µM | TGI [48]: > 100 µM | GI50 [49]: 5.53 µM | TGI [49]: > 100 µM | GI50 [50]: 12.3 µM | TGI [50]: > 100 µM | GI50 [51]: 7.97 µM | TGI [51]: > 100 µM | GI50 [52]: 3.13 µM | TGI [52]: > 100 µM | GI50 [53]: 26.9 µM | TGI [53]: > 100 µM | GI50 [54]: 3.89 µM | TGI [54]: > 100 µM | GI50 [55]: 4.1 µM | TGI [55]: > 100 µM | GI50 [56]: 3.43 µM | TGI [56]: 53.8 µM | GI50 [57]: 3.13 µM | TGI [57]: 80.7 µM
